Assay: Drug efficacy test: body weight of the mice
Assay type: in vivo, male nude mice (Balb nu/nu)
Procedure: Human prostate cancer PC-3 cells were inoculated under the dorsal skin of male nude mice (Balb nu/nu, 5-week-old, CHARLES RIVER LABORATORIES JAPAN, INC.) at 3×10^6 cells per mouse. At the time when the tumor volume reached 90.7±4.5 mm^3 (mean±standard error (SE)) (on day 10 after the inoculation), the drug was administered into the tail vein. […] It should be noted that the dosage is the amount in terms of the drug for each of the groups. […] It should be noted that, when the dosage of the bortezomib aqueous solution was set to more than 1 mg/kg, toxicity due to the active pharmaceutical ingredient became remarkable and the amount of body weight loss reached a severe level (e.g., a loss of 20% or more).

SMILES: CC(C)C[C@H](NC(=O)[C@H](Cc1ccccc1)NC(=O)c1cnccn1)B(O)O [Comparative Example 2, bortezomib]
- Body weight loss (dosage of more than 1 mg/kg, toxicity became remarkable): ≥ 20%
- Relative body weight 7 days after administration vs administration date (tail vein, 1 mg/kg): no significant difference in mouse body weight

— patent US9561284B2, “Pharmaceutical composition containing a block copolymer bound to a boronic acid compound” (NANOCARRIER CO., LTD., priority 2011, dated 2017)
